# Experimental data taken from patent publication US20240024290A1, “PHARMACEUTICAL COMPOSITIONS COMPRISING CANNABINOID AGONIST” (ARTELO BIOSCIENCES LIMITED, priority 2020, published 2024).
# Entries after “also recorded” stand apart in the source; their conditions may differ.
# Assay: Forced degradation study of the active substance (HPLC assay area %, sample observations)
# Assay type: physicochemical
# Description: HPLC Conditions • Instrument: Agilent 1100/1200 • Column: YMC Triart Phenyl, 4.6×150 mm. 3 μm particle size (ex-YMC P.N.TPH12S03-1546PTH) • Mobile Phase: A—10 mM Ammonium acetate pH 6.0 • B—Acetonitrile • Flow Rate: 1.0 ml·min-1 • Injection Volume: 5 μl • Detection: UV @ 220 nm • Column Temp: 30° C. • Post Run: 4 minutes
# • Diluent: Acetonitrile:deionised water (1:1) • Standard Solution: Make up a solution of 0.2 mg/ml. This is to be made up fresh prior to use at T=3 and T=7 days.
# Accurately weigh […] of the active substance into a 100 mL volumetric flask and dissolve in 50 mL of diluent. Dilute the resulting solution to volume with diluent and mix well.
# Table 1 below details the different study tests performed. All solution samples are prepared and stored in sealed vials and heated samples are cooled to ambient prior to sampling to prevent evaporation. Analysis took place on days 3 and 7 after stressing initiation for solutions described for Tests 1-6 and once exposure was complete for samples described in Tests 7-10. Due to the low levels of degradation observed at 7 days, Tests 3, 4 and 5 were heated to 80° C. for a further 4 days and analysed, and Test 6 was analysed after a further 6 days.
# The photostability samples were exposed to a total of 1.92 million lux hours and an integrated near-UV energy of 374.6 Whm^−2.
smiles,measurement,setting,value
"CCS(=O)(=O)Nc1ccc2c(c1)nc(C(C)(C)C)n2CC1CCC(F)(F)CC1 [Compound I, N-(2-(tert-butyl)-1-((4,4-difluorocyclohexyl)methyl)-1H-benzimidazol-5-yl)ethanesulfonamide]",Sample observations,"Test 1 Control (solution, ambient temperature), over study period, listed as active substance",Clear colourless solution; also recorded: No change over study period
same,Assay of active substance (area %),"Test 1 solution control, 0 days",99.40 area %
same,Assay of active substance (area %),"Test 1 solution control, 3 days",99.42 area %
same,Assay of active substance (area %),"Test 1 solution control, 7 days",99.30 area %
same,Assay of active substance (area %),"Test 1 solution control, 11 days",99.39 area %
same,Sample observations,"Test 2 Solid state 100° C., over study period, listed as active substance",orange solid over study period.
same,Assay of active substance (area %),"Test 2 solid state at 100° C., 3 days",99.43 area %
same,Assay of active substance (area %),"Test 2 solid state at 100° C., 7 days",99.40 area %
same,Sample observations,"Test 3 Acid 60° C., over study period, listed as active substance",Clear colourless solution; also recorded: No change over study period
same,Sample observations,"Test 3 Acid (1M, ambient), over study period, listed as active substance",No change over study period; also recorded: Clear colourless solution
same,Assay of active substance (area %),"Test 3 acid (1M) ambient temperature, 3 days",99.40 area %
same,Assay of active substance (area %),"Test 3 acid (1M) ambient temperature, 7 days",99.41 area %
same,Assay of active substance (area %),"Test 3 acid (1M) at 60° C. until day 7, 80° C. until day 11, 11 days",98.87 area %
same,Assay of active substance (area %),"Test 3 acid (1M) at 60° C., 3 days",99.37 area %
same,Assay of active substance (area %),"Test 3 acid (1M) at 60° C., 7 days",99.35 area %
same,Sample observations,"Test 4 Base 40° C. (so in the source), over study period, listed as active substance",Clear colourless solution; also recorded: No change over study period
same,Sample observations,"Test 4 Base (0.5M, ambient), over study period, listed as active substance",Clear colourless solution; also recorded: No change over study period
same,Assay of active substance (area %),"Test 4 base (0.5M) ambient temperature, 3 days",99.40 area %
same,Assay of active substance (area %),"Test 4 base (0.5M) ambient temperature, 7 days",99.37 area %
same,Assay of active substance (area %),"Test 4 base (0.5M) at 60° C. until day 7, 80° C. until day 11, 11 days",99.16 area %
same,Assay of active substance (area %),"Test 4 base (0.5M) at 60° C., 3 days",99.34 area %
same,Assay of active substance (area %),"Test 4 base (0.5M) at 60° C., 7 days",99.32 area %
same,Sample observations,"Test 5 Heat 60° C. (solution), over study period, listed as active substance",Clear colourless solution; also recorded: No change over study period
same,Assay of active substance (area %),"Test 5 solution at 60° C. until day 7, 80° C. until day 11, 11 days",98.00 area %
same,Assay of active substance (area %),"Test 5 solution at 60° C., 3 days",99.13 area %
same,Assay of active substance (area %),"Test 5 solution at 60° C., 7 days",99.34 area %
same,Sample observations,"Test 6 Peroxide (1.5%), over study period, listed as active substance",Clear colourless solution; also recorded: No change over study period
same,Assay of active substance (area %),"Test 6 peroxide (1.5%), 3 days",98.50 area %
same,Assay of active substance (area %),"Test 6 peroxide (1.5%), 7 days",97.75 area %
same,Assay of active substance (area %),"Test 6 peroxide (1.5%), 13 days",96.58 area %
same,Sample observations,"Test 7 Photostability (Solution Control), listed as active substance",Clear colourless solution; also recorded: No change over study period
same,Assay of active substance (area %),Test 7 photocontrol solution,99.40 area %
same,Assay of active substance (area %),"Test 8 photo treated solution (1.92 million lux hours, 374.6 Whm^-2 near-UV)",74.53 area %
same,Sample observations,Test 9 Photostability (Solid Control),Off white solid. No change over study period.
same,Assay of active substance (area %),Test 9 photocontrol solid,99.40 area %
same,Sample observations,"Test 10 Photostability (Solid Treated), listed as active substance",orange solid over study period.
same,Assay of active substance (area %),"Test 10 phototreated solid (1.92 million lux hours, 374.6 Whm^-2 near-UV)",99.31 area %
same,Forced degradation outcome,as a solution under photostability conditions,Major degradation
same,Forced degradation outcome,"peroxide conditions, 1M acid and 0.5M base extended to 80° C., solution heated to 80° C.",slight degradation
same,Forced degradation outcome,"solution at room temperature, solid at 100° C., 1M acid and 0.5M base at room temperature and 60° C., solution at 60° C., photostability as a solid",stable to degradation
